In PubChem BioAssay AID1963829 (Molecular Pharmacology Branch, DTP, NCI, 2024):

Tested on: 935938-334-R-J1-PDC complex spheroid viability
Assay: Anticancer human tumor 935938-334-R-J1-PDC patient-derived small intestine adenocarcinoma cell line growth inhibition [POLQ]
Settings: for IC50: curve of first compound; for viability, T/C: stronger effect = lower value
Outline: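 Three-cell-type spheroids modelling solid tumor plus stroma served as the readout system; POL inhibitors were tested individually and in combination, concentration ranges set by clinical Cmax where known.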

[1] = second compound 0.0316 µM, first compound 0.0316 µM
[2] = second compound 0.0316 µM, first compound 0.1 µM
[3] = second compound 0.1 µM, first compound 0.0316 µM
[4] = second compound 0.1 µM, first compound 0.1 µM
[5] = second compound 0.316 µM, first compound 0.0316 µM
[6] = second compound 0.316 µM, first compound 0.1 µM
[7] = second compound 1 µM, first compound 0.0316 µM
[8] = second compound 1 µM, first compound 0.1 µM
[9] = second compound 3.16 µM, first compound 0.0316 µM
[10] = second compound 3.16 µM, first compound 0.1 µM
[11] = second compound 10 µM, first compound 0.0316 µM
[12] = second compound 10 µM, first compound 0.1 µM
[13] = second compound 0.0316 µM, first compound 0.316 µM
[14] = second compound 0.0316 µM, first compound 1 µM
[15] = second compound 0.0316 µM, first compound 3.16 µM
[16] = second compound 0.0316 µM, first compound 10 µM
[17] = second compound 0.1 µM, first compound 0.316 µM
[18] = second compound 0.1 µM, first compound 1 µM
[19] = second compound 0.1 µM, first compound 3.16 µM
[20] = second compound 0.1 µM, first compound 10 µM
[21] = second compound 0.316 µM, first compound 0.316 µM
[22] = second compound 0.316 µM, first compound 1 µM
[23] = second compound 0.316 µM, first compound 3.16 µM
[24] = second compound 0.316 µM, first compound 10 µM
[25] = second compound 1 µM, first compound 0.316 µM
[26] = second compound 1 µM, first compound 1 µM
[27] = second compound 1 µM, first compound 3.16 µM
[28] = second compound 1 µM, first compound 10 µM
[29] = second compound 3.16 µM, first compound 0.316 µM
[30] = second compound 3.16 µM, first compound 1 µM
[31] = second compound 3.16 µM, first compound 3.16 µM
[32] = second compound 3.16 µM, first compound 10 µM
[33] = second compound 10 µM, first compound 0.316 µM
[34] = second compound 10 µM, first compound 1 µM
[35] = second compound 10 µM, first compound 3.16 µM
[36] = second compound 10 µM, first compound 10 µM
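Note: spheroids exposed to drugs for seven days before viability read.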
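Throughout, for viability, T/C: 100% = DMSO vehicle control wells.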

CC[C@@]1(O)C(=O)OCc2c1cc1n(c2=O)Cc2cc3c(CN(C)C)c(O)ccc3nc2-1 + Nc1ccc(C#CCN(C(=O)Cc2ncc(C(F)(F)F)cc2C(F)(F)F)c2ccc(F)cc2)nn1
IC50 (second compound 0.0316 µM): > 100 nM | IC50 (second compound 0.1 µM): > 100 nM | IC50 (second compound 0.316 µM): > 100 nM | IC50 (second compound 1 µM): > 100 nM | IC50 (second compound 3.16 µM): > 100 nM | IC50 (second compound 10 µM): > 100 nM | viability, T/C (second compound 0.0316 µM, first compound 0.000316 µM): 73.9% | viability, T/C (second compound 0.0316 µM, first compound 0.001 µM): 96.8% | viability, T/C (second compound 0.0316 µM, first compound 0.00316 µM): 97.6% | viability, T/C (second compound 0.0316 µM, first compound 0.01 µM): 91.9% | viability, T/C [1]: 84.3% | viability, T/C [2]: 60.2% | viability, T/C (second compound 0.1 µM, first compound 0.000316 µM): 98.6% | viability, T/C (second compound 0.1 µM, first compound 0.001 µM): 101% | viability, T/C (second compound 0.1 µM, first compound 0.00316 µM): 113% | viability, T/C (second compound 0.1 µM, first compound 0.01 µM): 98.1% | viability, T/C [3]: 96.7% | viability, T/C [4]: 63% | viability, T/C (second compound 0.316 µM, first compound 0.000316 µM): 129% | viability, T/C (second compound 0.316 µM, first compound 0.001 µM): 130% | viability, T/C (second compound 0.316 µM, first compound 0.00316 µM): 99.2% | viability, T/C (second compound 0.316 µM, first compound 0.01 µM): 82.6% | viability, T/C [5]: 87.4% | viability, T/C [6]: 57% | viability, T/C (second compound 1 µM, first compound 0.000316 µM): 132% | viability, T/C (second compound 1 µM, first compound 0.001 µM): 117% | viability, T/C (second compound 1 µM, first compound 0.00316 µM): 77.8% | viability, T/C (second compound 1 µM, first compound 0.01 µM): 105% | viability, T/C [7]: 86.7% | viability, T/C [8]: 48% | viability, T/C (second compound 3.16 µM, first compound 0.000316 µM): 110% | viability, T/C (second compound 3.16 µM, first compound 0.001 µM): 110% | viability, T/C (second compound 3.16 µM, first compound 0.00316 µM): 96.9% | viability, T/C (second compound 3.16 µM, first compound 0.01 µM): 116% | viability, T/C [9]: 84% | viability, T/C [10]: 65.1% | viability, T/C (second compound 10 µM, first compound 0.000316 µM): 163% | viability, T/C (second compound 10 µM, first compound 0.001 µM): 117% | viability, T/C (second compound 10 µM, first compound 0.00316 µM): 111% | viability, T/C (second compound 10 µM, first compound 0.01 µM): 72.7% | viability, T/C [11]: 103% | viability, T/C [12]: 48.6%

COc1ccc([C@@H](O)c2cc(-c3ncnc4cc(N5CCOCC5)ccc34)c(F)cc2Cl)nn1 + Cc1cccc(N(C)C(=O)C2C(O)CCN2c2nc(C)cc(C(F)(F)F)c2C#N)c1
IC50 (second compound 0.0316 µM): 6020 nM | IC50 (second compound 0.1 µM): 4280 nM | IC50 (second compound 0.316 µM): 3200 nM | IC50 (second compound 1 µM): 6410 nM | IC50 (second compound 3.16 µM): 3700 nM | IC50 (second compound 10 µM): 2580 nM | viability, T/C [1]: 79.3% | viability, T/C [2]: 117% | viability, T/C [13]: 76.8% | viability, T/C [14]: 79.1% | viability, T/C [15]: 63.8% | viability, T/C [16]: 39.9% | viability, T/C [3]: 75.3% | viability, T/C [4]: 98.1% | viability, T/C [17]: 69.6% | viability, T/C [18]: 60.3% | viability, T/C [19]: 61.4% | viability, T/C [20]: 34.5% | viability, T/C [5]: 116% | viability, T/C [6]: 98.9% | viability, T/C [21]: 97.6% | viability, T/C [22]: 75.8% | viability, T/C [23]: 48.2% | viability, T/C [24]: 30.3% | viability, T/C [7]: 90.6% | viability, T/C [8]: 80.2% | viability, T/C [25]: 83.4% | viability, T/C [26]: 97.6% | viability, T/C [27]: 72.7% | viability, T/C [28]: 35.8% | viability, T/C [9]: 101% | viability, T/C [10]: 85% | viability, T/C [29]: 81.8% | viability, T/C [30]: 67.2% | viability, T/C [31]: 55% | viability, T/C [32]: 33.1% | viability, T/C [11]: 103% | viability, T/C [12]: 80.8% | viability, T/C [33]: 85.6% | viability, T/C [34]: 59.9% | viability, T/C [35]: 48.9% | viability, T/C [36]: 28.4%

CC1COCCN1c1cc(-c2ccnn2C)c2ccnc(-c3ccn[nH]3)c2n1 (stereo unspecified) + COC1C(OC(N)=O)C(O)C(Oc2ccc3c(O)c(NC(=O)c4ccc(O)c(CC=C(C)C)c4)c(=O)oc3c2C)OC1(C)C
IC50 (second compound 0.0316 µM): 72.7 nM | IC50 (second compound 0.1 µM): 59.2 nM | IC50 (second compound 0.316 µM): 136 nM | IC50 (second compound 1 µM): 51.2 nM | IC50 (second compound 3.16 µM): 93 nM | IC50 (second compound 10 µM): 80.8 nM | viability, T/C [1]: 73.1% | viability, T/C [2]: 41% | viability, T/C [13]: 20.7% | viability, T/C [14]: 13.7% | viability, T/C [15]: 13.8% | viability, T/C [16]: 16.3% | viability, T/C [3]: 66.6% | viability, T/C [4]: 36% | viability, T/C [17]: 20.7% | viability, T/C [18]: 14.3% | viability, T/C [19]: 16.4% | viability, T/C [20]: 19.7% | viability, T/C [5]: 73.1% | viability, T/C [6]: 61% | viability, T/C [21]: 19.9% | viability, T/C [22]: 15% | viability, T/C [23]: 18% | viability, T/C [24]: 21.3% | viability, T/C [7]: 59.7% | viability, T/C [8]: 36.5% | viability, T/C [25]: 18.8% | viability, T/C [26]: 14.9% | viability, T/C [27]: 14.8% | viability, T/C [28]: 20.3% | viability, T/C [9]: 78.9% | viability, T/C [10]: 48% | viability, T/C [29]: 19.4% | viability, T/C [30]: 15% | viability, T/C [31]: 18.9% | viability, T/C [32]: 16.1% | viability, T/C [11]: 74.9% | viability, T/C [12]: 44.1% | viability, T/C [33]: 24.4% | viability, T/C [34]: 14.4% | viability, T/C [35]: 14.7% | viability, T/C [36]: 20.7%
